# Assay results published in patent US9163021B2, “Pyrrolo[3,2-c]pyridine tropomyosin-related kinase inhibitors” (Pfizer Limited, priority 2012, dated 2015).
# Target: TRKA (Homo sapiens (Human), UniProt P04629)
# Assay: Isolated TRK enzyme assay (HTRF KinEASE-TK), PV3144 TrkA enzyme assay
# Assay type: biochemical
# Details: arithmetic mean where more than one reading
# Experimental: Isolated TRK Enzyme assays use the HTRF KinEASE-TK kit (Cisbio Cat#62TK0PEJ) with recombinant His-tagged cytoplasmic domains of each TRK receptor sourced from Invitrogen (see table below). This activity-assay measures the phosphorylation of tyrosine residues within a substrate from the HTRF kit which has been validated by Cisbio for a variety of tyrosine kinases including the TRK receptors.
# 0.5 mM stock solutions of test compounds are prepared and serially diluted in 100% DMSO. A standard curve using the compound of Example 135 disclosed in WO2005/116035 of 150 uM is also prepared on each test plate. High percentage effect (HPE) is defined by 150 uM (using the compound of Example 135 as disclosed in WO2005/116035) and 0% effect (ZPE) is defined by 100% DMSO. Greiner low volume black plates containing 0.2 ul of serially diluted compound, standard and HPE/ZPE are created using the Bravo nanoliter dispenser.
# 1× enzyme buffer is prepared from 5× Enzymatic Buffer from the Cisbio KinEASE TK kit using MilliQ water. The buffer is then supplemented with 10 mM MgCI and 2 mM DTT (both from Sigma). In the case of TRKB, the buffer is also supplemented with 125 nM Supplement Enzymatic Buffer (SEB) from the Cisbio kit.
# 2× FAC of enzyme and 2× FAC ATP diluted in 1× complete enzyme buffer is incubated at room temperature for 20 minutes to preactivate the enzyme. Following this preactivation step, 5 ul/well of enzyme+ATP mix is added using a Multidrop Micro to the assay plate, spotted with 0.2 ul 100% DMSO compound. This is left for 20 mins at room temperature before adding 5 ul of 2 uM TK-substrate-Biotin (from the Cisbio kit) diluted in 1× enzyme buffer (1 uM FAC) using the Multidrop Micro. The reaction is incubated at room temperature for the optimized assay reaction time (see table). The reaction is stopped by adding 10 ul/well HTRF Detection Buffer containing 0.25 uM Streptavidin-XL665 (0.125 uM FAC) and 1:200 TK Antibody-Cryptate using a Multidrop.
# After the Detection Reagent addition, plates are covered and incubated at room temperature for 60 minutes. HTRF signal is read using an Envision reader, measured as a ratio of emissions at two different wavelengths, 620 nm and 665 nm. […] Test compound data are expressed as percentage inhibition defined by HPE and ZPE values for each plate. Percentage inhibition in the presence of test compound is plotted against compound concentration on a log scale to determine an IC50 from the resultant sigmoid curve.
# Where more than one reading was taken, the arithmetic mean is presented.
# Chain of TRKA (P04629 441-796): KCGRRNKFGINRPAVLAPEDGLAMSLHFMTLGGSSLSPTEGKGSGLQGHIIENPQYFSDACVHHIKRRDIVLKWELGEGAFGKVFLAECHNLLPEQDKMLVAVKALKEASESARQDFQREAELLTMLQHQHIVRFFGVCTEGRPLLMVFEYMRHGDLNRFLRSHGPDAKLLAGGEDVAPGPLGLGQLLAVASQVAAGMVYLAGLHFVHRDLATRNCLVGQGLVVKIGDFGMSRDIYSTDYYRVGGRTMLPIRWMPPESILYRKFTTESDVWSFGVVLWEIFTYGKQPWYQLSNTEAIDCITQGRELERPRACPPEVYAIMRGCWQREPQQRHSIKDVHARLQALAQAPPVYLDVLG
row,Structure (SMILES),IC50 [nM]
1,"CC(CO)n1cc(C(=O)c2cncc(NC(=O)Cc3ccc(F)cn3)c2)c2cncc(F)c21 (single isomer, unassigned) [Example 218, N-(5-{[7-fluoro-1-(1-hydroxypropan-2-yl)-1H-pyrrolo[3,2-c]pyridin-3-yl]carbonyl}pyridin-3-yl)-2-(5-fluoropyridin-2-yl)acetamide]",425
2,"CC(CO)n1cc(C(=O)c2cncc(NC(=O)Cn3cc(C(F)(F)F)cn3)c2)c2cncc(F)c21 (single isomer, unassigned) [Example 219, N-(5-{[7-fluoro-1-(1-hydroxypropan-2-yl)-1H-pyrrolo[3,2-c]pyridin-3-yl]carbonyl}pyridin-3-yl)-2-[4-(trifluoromethyl)-1H-pyrazol-1-yl]acetamide]",15.2
3,"CC(CO)n1cc(C(=O)c2cncc(NC(=O)Cn3cc(C(F)(F)F)nn3)c2)c2cncc(F)c21 (single isomer, unassigned) [Example 220, N-(5-{[7-fluoro-1-(1-hydroxypropan-2-yl)-1H-pyrrolo[3,2-c]pyridin-3-yl]carbonyl}pyridin-3-yl)-2-[4-(trifluoromethyl)-1H-1,2,3-triazol-1-yl]acetamide]",160
4,"CC(CO)n1cc(C(=O)c2cncc(NC(=O)Cc3ccc(C(F)(F)F)cc3)c2)c2cncc(F)c21 (single isomer, unassigned) [Example 222, N-(5-{[7-fluoro-1-(1-hydroxypropan-2-yl)-1H-pyrrolo[3,2-c]pyridin-3-yl]carbonyl}pyridin-3-yl)-2-[4-(trifluoromethyl)phenyl]acetamide]",16.4
5,"CC(CO)n1cc(C(=O)c2cncc(NC(=O)Cc3ccc(Cl)cc3)c2)c2cncc(F)c21 (single isomer, unassigned) [Example 223, 2-(4-chlorophenyl)-N-(5-{[7-fluoro-1-(1-hydroxypropan-2-yl)-1H-pyrrolo[3,2-c]pyridin-3-yl]carbonyl}pyridin-3-yl)acetamide]",27.8
6,"CC(CO)n1cc(C(=O)c2cncc(NC(=O)Cc3ccc(C(F)(F)F)cc3)c2)c2cncc(F)c21 (single isomer, unassigned) [Example 224, N-(5-{[7-fluoro-1-(1-hydroxypropan-2-yl)-1H-pyrrolo[3,2-c]pyridin-3-yl]carbonyl}pyridin-3-yl)-2-[4-(trifluoromethyl)phenyl]acetamide]",15.4
7,"CC(CO)n1cc(C(=O)c2cncc(NC(=O)Cc3ccc(Cl)cn3)c2)c2cncc(F)c21 (single isomer, unassigned) [Example 225, 2-(5-chloropyridin-2-yl)-N-(5-{[7-fluoro-1-(1-hydroxypropan-2-yl)-1H-pyrrolo[3,2-c]pyridin-3-yl]carbonyl}pyridin-3-yl)acetamide]",46.3
8,"CC(CO)n1cc(C(=O)c2cncc(NC(=O)Cc3cccc(C(F)(F)F)c3)c2)c2cncc(F)c21 (single isomer, unassigned) [Example 226, N-(5-{[7-fluoro-1-(1-hydroxypropan-2-yl)-1H-pyrrolo[3,2-c]pyridin-3-yl]carbonyl}pyridin-3-yl)-2-[3-(trifluoromethyl)phenyl]acetamide]",11.3
9,"CC(CO)n1cc(C(=O)c2cncc(NC(=O)Cn3cc(C(F)(F)F)cn3)c2)c2cncc(F)c21 (single isomer, unassigned) [Example 227, N-(5-{[7-fluoro-1-(1-hydroxypropan-2-yl)-1H-pyrrolo[3,2-c]pyridin-3-yl]carbonyl}pyridin-3-yl)-2-[4-(trifluoromethyl)-1H-pyrazol-1-yl]acetamide]",24.3
10,"Cc1cc(C(F)(F)F)nn1CC(=O)Nc1cncc(C(=O)c2cn(C(C)CO)c3c(F)cncc23)c1 (single isomer, unassigned) [Example 228, N-(5-{[7-fluoro-1-(1-hydroxypropan-2-yl)-1H-pyrrolo[3,2-c]pyridin-3-yl]carbonyl}pyridin-3-yl)-2-[5-methyl-3-(trifluoromethyl)-1H-pyrazol-1-yl]acetamide]",18.5
11,"CC(CO)n1cc(C(=O)c2cc(NC(=O)Cc3cccc(C(F)(F)F)c3)ccn2)c2cnccc21 (single isomer, unassigned) [Example 229, N-(2-{[1-(1-hydroxypropan-2-yl)-1H-pyrrolo[3,2-c]pyridin-3-yl]carbonyl}pyridin-4-yl)-2-[3-(trifluoromethyl)phenyl]acetamide]",200
12,"Cc1cc(C(F)(F)F)nn1CC(=O)Nc1cncc(C(=O)c2cn(C(C)(C)CO)c3c(F)cncc23)c1 [Example 1, N-{5-[7-Fluoro-1-(2-hydroxy-1,1-dimethyl-ethyl)-1H-pyrrolo[3,2-c]pyridine-3-carbonyl]-pyridin-3-yl}-2-(5-methyl-3-trifluoromethyl-pyrazol-1-yl)-acetamide]",6.32
13,"CC(C)(CO)n1cc(C(=O)c2cncc(NC(=O)Cn3ccc(C4CC4)n3)c2)c2cncc(F)c21 [Example 2, 2-(3-Cyclopropyl-pyrazol-1-yl)-N-{5-[7-fluoro-1-(2-hydroxy-1,1-dimethyl-ethyl)-1H-pyrrolo[3,2-c]pyridine-3-carbonyl]-pyridin-3-yl}-acetamide]",5.58
14,"CC(C)(CO)n1cc(C(=O)c2cncc(NC(=O)Cc3ccc(Cl)cn3)c2)c2cncc(F)c21 [Example 3, 2-(5-Chloro-pyridin-2-yl)-N-{5-[7-fluoro-1-(2-hydroxy-1,1-dimethyl-ethyl)-1H-pyrrolo[3,2-c]pyridine-3-carbonyl]-pyridin-3-yl}-acetamide]",7.85
15,"CC(C)(CO)n1cc(C(=O)c2cncc(NC(=O)Cn3cc(C(F)(F)F)cn3)c2)c2cncc(F)c21 [Example 4, N-{5-[7-Fluoro-1-(2-hydroxy-1,1-dimethyl-ethyl)-1H-pyrrolo[3,2-c]pyridine-3-carbonyl]-pyridin-3-yl}-2-(4-trifluoromethyl-pyrazol-1-yl)-acetamide]",5.33
16,"CC(C)(CO)n1cc(C(=O)c2cncc(NC(=O)Cc3cccc(C(F)(F)F)c3)c2)c2cncc(F)c21 [Example 5, N-{5-[7-Fluoro-1-(2-hydroxy-1,1-dimethyl-ethyl)-1H-pyrrolo[3,2-c]pyridine-3-carbonyl]-pyridin-3-yl}-2-(3-trifluoromethyl-phenyl)-acetamide]",4.41
17,"CC(C)(CO)n1cc(C(=O)c2cncc(NC(=O)Cc3ccc(C(F)(F)F)cc3)c2)c2cncc(F)c21 [Example 7, N-{5-[7-Fluoro-1-(2-hydroxy-1,1-dimethyl-ethyl)-1H-pyrrolo[3,2-c]pyridine-3-carbonyl]-pyridin-3-yl}-2-(4-trifluoromethyl-phenyl)-acetamide]",6.61
18,"CC(C)(CO)n1cc(C(=O)c2cncc(NC(=O)Cc3ccc(Cl)cn3)c2)c2cnccc21 [Example 8, 2-(5-Chloro-pyridin-2-yl)-N-{5-[1-(2-hydroxy-1,1-dimethyl-ethyl)-1H-pyrrolo[3,2-c]pyridine-3-carbonyl]-pyridin-3-yl}-acetamide]",38.5
19,"CC(C)(CO)n1cc(C(=O)c2cc(NC(=O)Cc3ccc(C#N)cc3)ccn2)c2cnccc21 [Example 9, 2-(4-cyanophenyl)-N-(2-{[1-(1-hydroxy-2-methylpropan-2-yl)-1H-pyrrolo[3,2-c]pyridin-3-yl]carbonyl}pyridin-4-yl)acetamide]",97.8
20,"CC(C)(CO)n1cc(C(=O)c2cc(NC(=O)Cn3ccc(C(F)(F)F)n3)ccn2)c2cnccc21 [Example 10, N-(2-{[1-(1-hydroxy-2-methylpropan-2-yl)-1H-pyrrolo[3,2-c]pyridin-3-yl]carbonyl}pyridin-4-yl)-2-[3-(trifluoromethyl)-1H-pyrazol-1-yl]acetamide]",14
21,"CC(C)(CO)n1cc(C(=O)c2cncc(NC(=O)Cn3cc(C(F)(F)F)nn3)c2)c2cnccc21 [Example 13, N-(5-{[1-(1-hydroxy-2-methylpropan-2-yl)-1H-pyrrolo[3,2-c]pyridin-3-yl]carbonyl}pyridin-3-yl)-2-[4-(trifluoromethyl)-1H-1,2,3-triazol-1-yl]acetamide]",9.86
22,"CC(C)c1cn(CC(=O)Nc2cncc(C(=O)c3cn(C(C)(C)CO)c4ccncc34)c2)nn1 [Example 14, N-(5-{[1-(1-hydroxy-2-methylpropan-2-yl)-1H-pyrrolo[3,2-c]pyridin-3-yl]carbonyl}pyridin-3-yl)-2-[4-(propan-2-yl)-1H-1,2,3-triazol-1-yl]acetamide]",9.89
23,"CC(C)(CO)n1cc(C(=O)c2cncc(NC(=O)Cc3ccc(F)cn3)c2)c2cnccc21 [Example 16, 2-(5-fluoropyridin-2-yl)-N-(5-{[1-(1-hydroxy-2-methylpropan-2-yl)-1H-pyrrolo[3,2-c]pyridin-3-yl]carbonyl}pyridin-3-yl)acetamide]",18.2
